Test systems include NCI-H522 lung; OVCAR-4 ovarian; ACHN renal; UACC-62 melanoma; SK-MEL-28 melanoma; HOP-92 NSCLC; SW-620 colon; SF-539 CNS; SF-268 CNS; HCT-116 colon.
Holding throughout (experiment): NCI-60 cell line screen, 48 h

The results in this text go back to PubChem BioAssay (NCI).

Where “and” joins values, the source holds several entries; their conditions need not be identical. Equal values may be shown once.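 A five-concentration, 48-hour dose response in 96-well plates underlies each endpoint, interpolated linearly between surrounding concentrations. At the GI50, growth is halved. TGI: concentration producing complete growth inhibition.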

Consider `Cc1ccc(NC(=O)C(=O)C(C(=O)c2ccc3ccccc3c2)C2OC(=O)c3ccccc32)c(C)c1` (configuration not stated), for which the TGI came out at 31.3 µM in the assay on NCI-H522 lung; 25.6 µM in the assay on OVCAR-4 ovarian; 60.4 µM in the assay on ACHN renal; 17.3 µM with UACC-62 melanoma; 31.2 µM with SK-MEL-28 melanoma; 27.8 µM in the assay on HOP-92 NSCLC. The TGI came out at 21.6 µM in the assay on SW-620 colon, 19.4 µM in the assay with SF-539 CNS, 35.7 µM in the assay with SF-268 CNS and 20.1 µM with HCT-116 colon.
As to `CCN(CC)CCC(=O)OC1C(C)=CC(C)C(=O)CC(C(C)CC2CCC(O)C(OC)C2)OC(=O)C2CCCCN2C(=O)C(=O)[C@@]2(O)OC(CCC2C)CC(OC)\C(C)=C/C=C/C=C/C(C)CC(C)C(=O)C1OC` (some centres not stated), the TGI in the assay on NCI-H522 lung is 26.5 µM; with OVCAR-4 ovarian, 2.27 µM; in the assay on ACHN renal it was 22.2 µM; with UACC-62 melanoma, 19.8 µM; in the assay on SK-MEL-28 melanoma, 19.3 µM; with HOP-92 NSCLC it was 21.9 µM. Besides, the TGI in the assay on SW-620 colon is 25.3 µM; in the assay on SF-539 CNS it was 15.2 µM; in the assay on SF-268 CNS, 20.5 µM; in the assay on HCT-116 colon, 20.1 µM.
Take `Cc1c(N)nc([C@H](CC(N)=O)NC[C@H](N)C(N)=O)nc1C(=O)N[C@H](C(=O)N[C@H](C)[C@@H](O)CC(=O)N[C@H](C(=O)NC(O[C@@H]1O[C@@H](C)[C@@H](N)[C@@H](O)[C@H]1O)C(O)c1nc(-c2nc(C(=O)NCCCCN)cs2)cs1)[C@@H](C)O)[C@@H](O[C@@H]1O[C@@H](CO)[C@@H](O)[C@H](O)[C@@H]1O[C@H]1O[C@H](CO)[C@@H](O)[C@H](OC(N)=O)[C@@H]1O)c1c[nH]cn1` (some centres not stated): the TGI with NCI-H522 lung, in the assay with OVCAR-4 ovarian, with ACHN renal, with UACC-62 melanoma, in the assay with SK-MEL-28 melanoma and in the assay with HOP-92 NSCLC was over 50 µM each time. Also, the TGI in the assay on SW-620 colon, in the assay with SF-539 CNS, with SF-268 CNS and in the assay with HCT-116 colon was over 50 µM each time.
Consider `CCCN(CCC)CCc1cc(C(C)=O)n(S(=O)(=O)c2ccc(C)cc2)c1`, for which the TGI in the assay on NCI-H522 lung, in the assay with OVCAR-4 ovarian, in the assay with ACHN renal, in the assay with UACC-62 melanoma, in the assay on SK-MEL-28 melanoma and in the assay with HOP-92 NSCLC was over 100 µM each time. Further, the TGI in the assay on SW-620 colon, with SF-539 CNS, with SF-268 CNS and in the assay with HCT-116 colon was over 100 µM each time.
As for `O=C1NC(O)c2ccccc2O1` (configuration not stated), the TGI with NCI-H522 lung, in the assay with OVCAR-4 ovarian, with ACHN renal, in the assay on UACC-62 melanoma, in the assay on SK-MEL-28 melanoma and in the assay with HOP-92 NSCLC was over 100 µM throughout. Moreover, the TGI with SW-620 colon, in the assay with SF-539 CNS, with SF-268 CNS and in the assay with HCT-116 colon was over 100 µM in each case.
With `COc1cc(OC)c(/C=C/C(=O)c2ccc(Nc3ncnc4ccccc34)cc2)c(OC)c1`, the GI50 in the assay on NCI-H522 lung was 0.296 µM; in the assay with OVCAR-4 ovarian, 1.21 µM; with ACHN renal, 1.83 µM; in the assay with UACC-62 melanoma, 0.599 µM; in the assay with SK-MEL-28 melanoma, 0.94 µM; in the assay on HOP-92 NSCLC it was 1.08 µM. Also, the GI50 in the assay with SW-620 colon was 0.403 µM; in the assay on SF-539 CNS, 0.837 µM; in the assay with SF-268 CNS it was 1.37 µM; in the assay on HCT-116 colon it was 0.45 µM. Moreover, the TGI in the assay on NCI-H522 lung was 1.44 µM; with OVCAR-4 ovarian it was 3.05 µM; in the assay with ACHN renal it was 17.7 µM; in the assay with UACC-62 melanoma, 2.18 µM; in the assay with SK-MEL-28 melanoma, 3.03 µM; with HOP-92 NSCLC, 3.89 µM. Also, the TGI in the assay with SW-620 colon amounted to 2.64 µM; in the assay on SF-539 CNS, 2.31 µM; in the assay on SF-268 CNS it was 4.4 µM; with HCT-116 colon it was 2.04 µM.
In the case of `COC1CC(C)C(OC)c2cc(O)cc(c2O)NC(=O)/C(C)=C/C=C\C(C)C(OC(N)=O)/C(C)=C\C(C)C1OC` (configuration not stated), the GI50 is 0.0575 µM and 0.0989 µM in the assay with NCI-H522 lung; 2.51 µM in the assay on OVCAR-4 ovarian; 6.71 µM with ACHN renal; 0.162 µM in the assay on UACC-62 melanoma; 0.291 µM with SK-MEL-28 melanoma; 0.234 µM in the assay with HOP-92 NSCLC. The GI50 in the assay on SW-620 colon was 0.0544 µM and 0.0649 µM; with SF-539 CNS it was 0.271 µM; in the assay with SF-268 CNS, 0.693 µM and 0.279 µM; in the assay with HCT-116 colon, 0.0642 µM and 0.571 µM. Moreover, the TGI in the assay with NCI-H522 lung is 0.683 µM and 0.913 µM; in the assay on OVCAR-4 ovarian, 7.87 µM and 10.1 µM; in the assay on ACHN renal, 12.6 µM and 13.2 µM; in the assay with UACC-62 melanoma it was 8.89 µM and 5.83 µM; in the assay with SK-MEL-28 melanoma, 6.89 µM and 9.62 µM; with HOP-92 NSCLC, 12.1 µM and 2.79 µM. The TGI in the assay on SW-620 colon was 3.7 µM and 3.97 µM; in the assay with SF-539 CNS, 10.2 µM and 8.61 µM; in the assay on SF-268 CNS, 21.1 µM and 11 µM; with HCT-116 colon it was 8.1 µM and 9.01 µM.
Turning to `CC(=O)O[C@@]12CO[C@@H]1C[C@H](O)[C@@]1(C)C(=O)[C@H](O)C3=C(C)[C@@H](OC(=O)[C@H](O)[C@@H](NC(=O)OC(C)(C)C)c4ccccc4)C[C@@](O)([C@@H](OC(=O)c4ccccc4)C12)C3(C)C` (some centres not stated), the TGI with NCI-H522 lung was 52.3 µM; in the assay with OVCAR-4 ovarian it was over 100 µM; in the assay with ACHN renal it was 50 µM and > 100 µM; with UACC-62 melanoma, 33.7 µM; in the assay with SK-MEL-28 melanoma, 50.7 µM; in the assay on HOP-92 NSCLC, 17.1 µM and 8.9 µM. In addition, the TGI in the assay with SW-620 colon is 50 µM and > 100 µM; with SF-539 CNS, 19.3 µM and 22.9 µM; in the assay with SF-268 CNS it was 81.5 µM; in the assay on HCT-116 colon, 50 µM and > 100 µM. Also, the GI50 is 12.6 µM in the assay on OVCAR-4 ovarian; 0.0922 µM in the assay on UACC-62 melanoma; 12.7 µM in the assay with SK-MEL-28 melanoma; < 0.005 µM and 0.0181 µM in the assay on HOP-92 NSCLC; under 0.005 µM in the assay on SW-620 colon; under 0.005 µM with SF-539 CNS. Moreover, the GI50 in the assay with HCT-116 colon is under 0.005 µM.
`Nc1ncn(C2OC(COP(=O)(O)O)C(O)C2O)c(=O)n1` (configuration not stated): the TGI with NCI-H522 lung, in the assay with OVCAR-4 ovarian, with ACHN renal, in the assay with UACC-62 melanoma, with SK-MEL-28 melanoma and in the assay on HOP-92 NSCLC was over 100 µM throughout. The TGI with SW-620 colon, in the assay on SF-539 CNS, with SF-268 CNS and with HCT-116 colon was over 100 µM in each case.
